# Source: patent publication US9981959B2, “Thiazolyl and oxazolyl urea, thiourea, guanidine and cyanoguanidine compounds as TrkA kinase inhibitors” (Array BioPharma Inc., priority 2012, dated 2018)
# Target: TrkA (Homo sapiens, UniProt P04629)
# Test: TrkA LanthaScreen Eu Kinase Binding Assay
# Parameters: 6HIS tagged cytoplasmic domain from Invitrogen, Cat. No. PV3144; purchased Invitrogen PV3144
# Conditions: averaged IC50; TR-FRET binding, 60 min, 22° C.; read-out: TrkA enzyme IC50
# Protocol: TrkA binding activity was determined in a TrkA LanthaScreen™ Eu Kinase Binding Assay. 5 nM His-tagged recombinant human TrkA (6HIS tagged cytoplasmic domain from Invitrogen, Cat. No. PV3144) was incubated with 4 nM Alexa-Fluor® Tracer 236 (Invitrogen Cat. No. PV5592), 2 nM biotinylated anti-His (Invitrogen Cat. No. PV6090), and 2 nM europium-labeled Streptavidin (Invitrogen Cat. No. PV5899), in buffer (25 mM MOPS, pH 7.5, 5 mM MgCl2, 0.005% Triton X-100). Three fold serial dilutions of compounds of the invention in DMSO were added to a final percentage of 2% DMSO. After 60-minute incubation at 22° C., the reaction was measured using the EnVision mutlimode plate reader (PerkinElmer) via TR-FRET dual wavelength detection at […]. The percent of control was calculated using a ratiometric emission factor. The IC50 values were determined by fitting a four parameter model to the percent of control data.
# Table A provides averaged IC50 values for compounds of the invention when tested in the assay of Example A, where A represents an averaged IC50 value <100 nM; and B represents an averaged IC50 value from 100 to 1,000 nM.
# Sequence of TrkA (P04629 440-796 limits assumed): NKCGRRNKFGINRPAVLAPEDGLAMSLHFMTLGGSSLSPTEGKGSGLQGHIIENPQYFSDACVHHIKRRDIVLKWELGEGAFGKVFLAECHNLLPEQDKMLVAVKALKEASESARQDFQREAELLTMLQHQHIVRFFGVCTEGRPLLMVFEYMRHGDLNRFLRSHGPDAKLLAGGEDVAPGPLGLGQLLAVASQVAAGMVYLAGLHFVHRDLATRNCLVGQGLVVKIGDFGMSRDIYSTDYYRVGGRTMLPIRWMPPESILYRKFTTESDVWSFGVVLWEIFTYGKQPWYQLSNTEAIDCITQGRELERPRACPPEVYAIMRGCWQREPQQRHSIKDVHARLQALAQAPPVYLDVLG
row,IC50 [nM],Structure (SMILES)
1,< 100,"Cc1nc(-c2ccccc2)c(NC(=O)Nc2c(C)c(-c3cnn(C)c3)nn2-c2ccccc2)s1 [Example 1, 1-(1′,4-dimethyl-1-phenyl-1H,1′H-[3,4′-bipyrazol]-5-yl)-3-(2-methyl-4-phenylthiazol-5-yl)urea]"
2,100 to 1000,"Cc1c(C(N)=O)nn(-c2ccccc2)c1NC(=O)Nc1sc(C(F)(F)F)nc1-c1ccccc1 [Example 4, 4-methyl-1-phenyl-5-(3-(4-phenyl-2-(trifluoromethyl)thiazol-5-yl)ureido)-1H-pyrazole-3-carboxamide]"
3,100 to 1000,"Cc1nc(-c2ccccc2)c(NC(=O)Nc2c(C)c(-c3cnn(C)c3)nn2-c2ccccc2)o1 [Example 3, 1-(1′,4-dimethyl-1-phenyl-1H, 1′H-[3,4′-bipyrazol]-5-yl)-3-(2-methyl-4-phenyloxazol-5-yl)urea]"
4,< 100,"Cc1c(OCCO)nn(-c2ccccc2)c1NC(=O)Nc1sc(C(F)(F)F)nc1-c1ccccc1 [Example 5, 1-(3-(2-hydroxyethoxy)-4-methyl-1-phenyl-1H-pyrazol-5-yl)-3-(4-phenyl-2-(trifluoromethyl)thiazol-5-yl)urea]"
